The text below walks through data of article PMC9201908, “Expansion of the Strigolactone Profluorescent Probes Repertory: The Right Probe for the Right Application” (Frontiers in Plant Science, 2022).

Several values for one entry are separate records, joined by “and”; a condition that tells them apart may be missing. Identical values can stand only once. Counter-ions that a name gives are not always drawn. Like-named read-outs stand apart in the source and are kept apart here.

Assay [1] deals with rms1-10 pea mutant plants. The assay can be described thus: Pea shoot-branching assay by direct application on the bud, rms1-10. Particulars: for Length of bud at node 3 /branch: direct application, rms1-10, 10 days after treatment; for Bioactivity on shoot branching inhibition (bud development): result in words. It is filed as in vivo, Pisum sativum. The procedure: (§1) Pea (Pisum sativum) branching mutant plants used in this study were described previously (Rameau et al., [1997]). The SL biosynthesis rms1-10 (M3T-884) and SL response rms3-4 (M2T-30) mutants were obtained from the dwarf cv. Térèse. Plants were grown in a greenhouse under long days as described by Braun et al. ([2012]).
(§2) The compounds to be tested were applied directly to the axillary bud with a micropipette as 10 μL of a solution containing 0.1% of acetone with 2% of polyethylene glycol 1,450, 50% of ethanol, and 0.4% of DMSO. The control 0 is the treatment with 0.1% of DMSO without compound. A total of 24 plants were sown per treatment in trays (2 repetitions of 12 plants). The treatment was done 8 days after sowing, on the axillary bud at node 3. The branches at nodes 1–2 were removed to encourage the outgrowth of axillary buds at nodes above. Nodes were numbered acropetally from the first scale leaf as node 1 and cotyledonary node as node 0. Bud growth at node 3 was measured 10 days after treatment. Plants with damaged main shoot apex or showing a dead white treated bud were discarded from the analysis. The SL-deficient rms1-10 pea mutant was used for all experiments and WT Térèse as control. SL-perceived rms3-4 pea mutant was used to test that when bioactive, the analog acts via RMS3, and it was also used to check the putative toxicity of probes.

Assay [2] concerns Arabidopsis SL-deficient mutant max3-11. The assay is described as follows: Hydroponic assay on Arabidopsis, rosette branches. The class given is in vivo, Arabidopsis thaliana. The note with it: max3-11, hydroponic, 0.5 and 3 μM. The procedure:
The hydroponic assay was adapted from the study by Cornet et al. ([2021]). Seeds were surface-sterilized for 8 min in a solution of ethanol (95%) and hypochlorite solution (10%; Bayrol, Mundolsheim, France) and were rinsed two times with ethanol (100%). Each seed was sown on top of a cut 0.5 ml Eppendorf tube filled with agar medium containing 0.65% of agar and 10% of nutritive solution of 5 mM NO3. Tubes were soaked in water and stored in the dark at 4°C for 2 days. Twelve plants per pipette tip box (13 × 9 × 7 cm) were grown and supplied with nutrient solution as in the study by Boyer et al. ([2014]) at a concentration of 5 ml/L (750 ml of solution per box). Every week, the nutrient solution was renewed and every 10 days one time, a fresh batch of treatment was added to the solution. The first treatment occurred at day 27 after sowing when plants started to bolt. The number of rosette branches was counted at day 42.

The test system of assay [3] is Ppccd8 mutant plants. The assay is described as follows: Physcomitrium patens bioassay, number of filaments in the dark. It is filed as in vivo. Particulars: 1 μM; for Activity on filament number, one bioassay replication: Supplementary Figure 3. The procedure: Assays on Physcomitrium patens were performed on plants grown in 24-well plates, starting from very small pieces of moss tissues as described by Guillory and Bonhomme ([2021]). As for pea rms1, the Ppccd8 SL synthesis mutant was used for assays, since the effect of the compounds was better seen in this mutant vs. wild type (WT; Lopez-Obando et al., [2021]). For each treatment, 24 plants were grown in PpNO3 medium [minimal medium described by Ashton et al., [1979]], dispatched in three different plates. Plants were grown for 2 weeks under control conditions, then treated with fluorophores or probes (all compounds used at 1 μM), before being placed vertically in the dark for 10 days. A single picture of each well was taken under an Axio Zoom microscope (Zeiss) with a dedicated program. Filaments were counted using ImageJ software (http://imagej.nih.gov/ij/) as described by Guillory and Bonhomme ([2021]). Twenty-four plants were tested in each treatment.

The target of assay [4] is T1, RMS3 protein (Pisum sativum, UniProt A0A109QYD3).
T1 construct: GST; made in house
T1 sequence (A0A109QYD3 1-267): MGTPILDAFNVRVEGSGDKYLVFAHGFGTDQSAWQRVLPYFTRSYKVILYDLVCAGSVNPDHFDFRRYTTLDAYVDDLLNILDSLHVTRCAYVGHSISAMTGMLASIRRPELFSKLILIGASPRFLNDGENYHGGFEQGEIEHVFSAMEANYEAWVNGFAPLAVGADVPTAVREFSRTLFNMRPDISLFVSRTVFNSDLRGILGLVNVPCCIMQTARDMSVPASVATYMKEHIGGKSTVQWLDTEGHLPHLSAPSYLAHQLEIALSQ
The assay is described as follows: DSF binding assay on RMS3. The note with it: 10 µM RMS3, probe 0-400 µM.
Excerpt: To search for a destabilization effect, which characterizes bioactive SL analogs with SL receptors, we performed DSF binding assay with our novel probes on RMS3 protein.
DSF assay with SL profluorescent probes. The melting temperature

Assay [5] concerns the target T1, RMS3 protein. The assay can be described thus: Enzymatic assay with profluorescent probes, RMS3. The class given is biochemical. The note with it: probe 10 μM, RMS3 400 nM, 25°C, result in words.
In assay [6] the test system is rms3-4 pea mutant plants. The assay is described as follows: Pea shoot-branching assay by direct application on the bud, rms3-4. The note with it: 1,000 nM, rms3-4, 10 days after treatment. The class given is in vivo, Pisum sativum. On the procedure: as §1, §2
Assay [7] has as its system rms1-10 pea mutant plants. Particulars: cited from earlier work; for Length of bud at node 3 /branch: direct application, rms1-10, tested previously, ref De saint Germain et al 2016.
Assay [8] concerns Ppccd8 mutant plants. Particulars: WT and Ppccd8; ref Hoffmann et al., 2014; Lopez-Obando et al., 2021; cited from earlier work.
For assay [9], the system named is ShD14. Further details: method as in Xu et al., 2018. The note with it: ref Xu et al., 2018; cited from earlier work.
Assay [10] relates to pea. The assay is described as follows: Bioactivity of D14 inhibitors in pea. Particulars: in vivo.

As for 7-Hydroxycoumarin [reference compound], the “Length of bud at node 3 /branch” value in assay [1] (1,000 nM, mean per replicate) amounted to 41.46 mm.
As to `CC1=CC(Oc2ccc3ccc(=O)oc3c2)OC1=O` (racemic) [(±)-GC116], the “Length of bud at node 3 /branch” value was 11.47 mm in [1] (0.1 nM); 6.38 mm in [1] (1 nM); 2.47 mm and 2.26 mm and 5.20 mm and 4.34 mm and 3.85 mm in assay [1] (10 nM, mean per replicate); 2.66 mm and 2.29 mm and 2.46 mm and 1.96 mm and 1.72 mm in [1] (100 nM, mean per replicate); 1.67 mm and 3.13 mm and 1.60 mm and 2.22 mm and 1.97 mm and 2.21 mm in assay [1] (1,000 nM, mean per replicate); 2.43 mm in assay [1] (10,000 nM, mean per replicate). Further, the “Inhibition of bud development among probes with one methyl group on the D-ring” value in assay [1] (rms1-10, direct application, 10 nM) is “strongest inhibition of bud development”. Also, the “Bioactivity on shoot branching inhibition (bud development)” value in assay [1] (rms1-10, direct application) was “inhibition of bud development”. The “Bioactivity on number of rosette branches” value in assay [2] is reported as “bioactive at 3 μM”. Moreover, the “Activity on filament number, one bioassay replication” value in assay [3] is given as “no significant bioactivity”. The “Destabilization of RMS3 (DSF)” value in [4] is on record as “able to destabilize RMS3”.
For the compound `CC1=C(C)C(Oc2ccc3ccc(=O)oc3c2)OC1=O` (racemic) [(±)-GC155], the “Length of bud at node 3 /branch” value in assay [1] (10 nM, mean per replicate) is 5.97 mm and 16.85 mm and 8.43 mm; in assay [1] (100 nM, mean per replicate), 3.68 mm and 4.11 mm and 2.71 mm and 5.98 mm and 1.83 mm; in assay [1] (1,000 nM, mean per replicate), 1.98 mm and 1.45 mm and 1.92 mm and 1.96 mm and 2.38 mm and 2.32 mm; in assay [1] (10,000 nM, mean per replicate) it was 2.06 mm. In [1] (rms1-10, direct application), the “Bioactivity on shoot branching inhibition (bud development)” value is listed as “among the most bioactive molecules”. Also, the “Cleavage kinetics by RMS3” value in assay [5] is given as “two-phase kinetic”. Moreover, the “Destabilization of RMS3 (DSF)” value in assay [4] is given as “able to destabilize RMS3”.
Consider `CC1=C(C)C(Oc2ccc3nc4ccc(=O)cc-4oc3c2)OC1=O` (racemic) [(±)-GC247, 7-[(3,4-Dimethyl-5-Oxo-2,5-Dihydrofuran-2-yl)Oxy]-3H-Phenoxazin-3-One], for which the “Length of bud at node 3 /branch” value in assay [1] (10 nM, mean per replicate) amounted to 12.39 mm; in [1] (10,000 nM, mean per replicate) it was 6.54 mm. For the same compound, the “Bioactivity on shoot branching inhibition (bud development)” value in [1] (rms1-10, direct application) is given as “inhibitory effect with statistical significance only at 10 μM”. The “Cleavage kinetics by RMS3” value in assay [5] is recorded as “two-phase kinetic”.
For `COc1cc2ccc(=O)oc2cc1OC1C=C(C)C(=O)O1` (racemic) [(±)-GC379], the “Length of bud at node 3 /branch” value is 3.54 mm in [1] (10 nM, mean per replicate); 2.81 mm and 5.02 mm and 3.98 mm and 14.32 mm in assay [1] (100 nM, mean per replicate); 3.38 mm and 3.19 mm and 3.65 mm and 3.04 mm in assay [1] (1,000 nM, mean per replicate); 2.17 mm in assay [1] (10,000 nM, mean per replicate); 26.30 in assay [6]. Further, in [1] (rms1-10, direct application), the “Bioactivity on shoot branching inhibition (bud development)” value is recorded as “bioactive for the three tested concentrations”. In addition, in [4], the “Destabilization of RMS3 (DSF)” value is listed as “able to destabilize RMS3”.
Take `COc1cc2ccc(=O)oc2cc1OC1OC(=O)C(C)=C1C` (racemic) [(±)-GC380]: the “Length of bud at node 3 /branch” value in [1] (10 nM, mean per replicate) was 6.65 mm; in assay [1] (100 nM, mean per replicate) it was 8.99 mm and 11.66 mm and 5.90 mm; in assay [1] (1,000 nM, mean per replicate), 2.33 mm and 3.47 mm and 2.08 mm; in [1] (10,000 nM, mean per replicate) it was 2.15 mm; in assay [6], 23.62. The “Bioactivity on shoot branching inhibition (bud development)” value in assay [1] (rms1-10, direct application) was “bioactive for the three tested concentrations”.
For the compound `Cc1cc(=O)oc2c(F)c(OC3C=CC(=O)O3)c(F)cc12` (racemic) [(±)-GC486], the “Length of bud at node 3 /branch” value is 24.70 mm in [1] (10 nM, mean per replicate); 22.10 mm in assay [1] (100 nM, mean per replicate); 23.14 mm in assay [1] (1,000 nM, mean per replicate); 9.26 mm in assay [7] (1,000 nM); 17.41 mm in [7] (5,000 nM). In addition, in [1] (rms1-10, direct application), the “Bioactivity on shoot branching inhibition (bud development)” value is reported as “no biological activity”. The “Activity on filament number, one bioassay replication” value in assay [3] is “slight opposite effect”. Also, the “Cleavage kinetics by RMS3” value in assay [5] is reported as “Michaelian kinetics”.
As to `CC1=C[C@H](O/C=C2/C(=O)O[C@@H]3c4ccccc4C[C@H]23)OC1=O` (racemic) [(±)-GR24, reference compound], the “Bioactivity on number of rosette branches” value in assay [2] is reported as “bioactive at both concentrations”. Besides, in assay [3], the “Activity on filament number” value is given as “confirmed the previous activity”. Further, in [8], the “Effect on filament number” value was “decrease in filament number”. For the same compound, the “Cleavage by ShD14” value in assay [9] is recorded as “could cleave”.
As for `CCOC(=O)c1ccccc1-c1c2ccc(=O)cc-2oc2cc(OC3C=CC(=O)O3)ccc12` (racemic) [(±)-dYLG, reference compound], the “Biological activity on branching inhibition” value in assay [7] (ref Yao et al., 2021) is reported as “no biological activity”.
Take `CC1=CC(OC=C2C(=O)OC3c4ccccc4CC23)OC1=O` (single isomer, unassigned; (+)) [(+)-GR24]: the “Effect on filament number” value in [8] is “decrease in filament number”.
In the case of `CC(=O)Oc1ccc2ccc(=O)oc2c1` [CoumarinAc, 7-Acetoxycoumarin], the “Length of bud at node 3 /branch” value in assay [1] (10 nM, mean per replicate) is listed as 21.81 mm; in [1] (100 nM, mean per replicate) it was 22.67 mm; in [1] (1,000 nM, mean per replicate), 25.33 mm. Also, in [1] (rms1-10, direct application), the “Bioactivity on shoot branching inhibition (bud development)” value was “no effect”. In assay [5], the “Cleavage kinetics by RMS3” value is “slower velocity than DiFMUAc”.
Consider `Cc1cc(=O)oc2c(F)c(O)c(F)cc12` [DiFMU, 6,8-difluoro-7-hydroxy-4-methyl-2H-chromen-2-one, reference compound], for which, in assay [1] (1,000 nM, mean per replicate), the “Length of bud at node 3 /branch” value turned out to be 14.76 mm.
As for `O=C(N1CCc2ccccc21)n1ccnn1` [KK094], in assay [10], the Bioactivity in pea entry is given as “no bioactivity”.
As to `O=c1ccc2nc3ccc(O)cc3oc-2c1` [Resorufin, reference compound], the “Length of bud at node 3 /branch” value is recorded as 12.53 mm in assay [1] (10 nM, mean per replicate); 16.50 mm in assay [1] (100 nM, mean per replicate); 14.90 mm in assay [1] (1,000 nM, mean per replicate).
With `Cc1c(Cl)cccc1Nc1ccccc1C(=O)O` [TFA, tolfenamic acid], the Bioactivity in pea result in assay [10] is “no bioactivity”.
